Series [1] deals with A375 melanoma (B-Raf V600E mutation). Put plainly: A375 cell growth inhibition (ATPlite luminescence). Conditions: Homo sapiens, A-375, 72 h, A375 cells, incubated 3 days with compound. Type of series: cell-based. The protocol:
Compounds are assessed in a variety of cell based assays. For example human cell lines with B-Raf V600E mutation (A375 melanoma, SKMEL3 melanoma, and COLO205 colon adenocarcinoma), as well as tumorigenic cell lines with wild-type B-RAF (SW620 colon adenocarcinoma) or with Ras mutations (SKMEL2 melanoma and IPC298 melanoma). Similar assays may be used to assess additional tumorigenic cell lines with Ras mutations, including, but not limited to, M202, M207, M243, M244, M296, S117, HCT116, HCT15, DLD1, MiaPaCa, A549, NCI-H23, NCI-H460, HOP62, MDA-MB231, Hs-578T, HL60, MOLT-4, and CCRF-CEM.
On day 1, cells are counted, then centrifuged in a conical tube for 5 minutes at 1000 rpm. The supernatant is removed and cells are re-suspended as follows: • SW620 (ATCC catalog #CCL-27): resuspend in Leibovitz's L-15 medium, 2 mM L-glutamine, 10% fetal bovine serum to 6×10^4 cells/mL. • A375 (ATCC catalog #CRL-1619): resuspend in Dulbecco's modified Eagle's medium, 4 mM L-glutamine, 4.5 g/L D-glucose, 10% fetal bovine serum to 6×10^4 cells/mL. • COLO205 (ATCC catalog #CCL-222): resuspend in RPMI 1640, 2 mM L-glutamine, 1.5 g/L sodium bicarbonate, 4.5 g/L D-glucose, 10 mM HEPES, 1.0 mM sodium pyruvate, 10% fetal bovine serum to 6×10^4 cells/mL. • SKMEL2 (ATCC catalog #HTB-68): resuspend in Minimum Eagle essential medium, 2 mM L-glutamine, 1.5 g/L sodium bicarbonate, 0.1 mM non-essential amino acids, 1.0 mM sodium pyruvate, 10% fetal bovine serum to 6×10^4 cells/mL. • SKMEL3 (ATCC catalog #HTB-69): resuspend in McCoy's 5A medium, 1.5 mM L-glutamine, 15% fetal bovine serum to 6×10^4 cells/mL. • IPC298 (DSMZ catalog #ACC 251): resuspend in RPMI 1640, 2 mM L-glutamine, 10% fetal bovine serum to 6×10^4 cells/mL.
The cells are plated, 50 μL in each well of a 96-well dish (Corning 3610) and incubated at 37° C. in 5% CO2 overnight, cells plated to a final concentration of cells as follows:
On day 2, compound at a maximum concentration of 5 mM is serially diluted 1:3 (e.g. 10 μL with 30 μL dimethyl sulfoxide) for a total of 8 point titration with DMSO as a control. A 1 μL aliquot of each dilution point and control is added to 249 μL growth media and 50 μL is added to a well containing cells, providing 10 μM compound at the maximum concentration point. The cells are incubated for 3 days at 37° C. in 5% CO2.
On day 5, ATPlite 1 step Luminescence Assay System (Perkin Elmer #6016739) is brought to room temperature along with the cell cultures. ATPlite is added 25 μL to each well, shake for 2 minutes, and the cells are incubated at room temperature for 10 minutes, then luminescence is read on Safire reader. The measured luminescence correlates directly with cell number, such that the reading as a function of compound concentration is used to determine the IC50 value.
It is understood that the results of these assays may vary as assay conditions are varied. Inhibition levels determined under the conditions described herein represent a relative activity for the compounds tested under the specific conditions employed. The cell based assays are likely to show variability due to the complexity of the system and the sensitivity thereof to any changes in the assay conditions. […] Results for compounds that are tested and show substantially no inhibition below the highest tested concentration are represented as “-” in the tables below. In some instances, the compounds were not tested in all of the assays, or assay results were not valid, as indicated by NA in the tables below.
A general note: In ATP-based viability assays light output follows the ATP content of the culture.

Series [2] in a line: Relative solubility by turbidity in aqueous buffers (pH 1.5, 4.5, 6.8, 7.4). Type of series: physicochemical. Conditions: for turbidity threshold (L, M, H) 1.4: pH 1.5 buffer (SGF); for turbidity threshold (L, M, H) 4.5: pH 4.5 buffer (SIF); for turbidity threshold (L, M, H) 6.8: pH 6.8 buffer (SIF); for turbidity threshold (L, M, H) 7.4: pH 7.4 buffer (HEPES). The gist of the method: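 2-fold DMSO dilution series from 25 mM stocks were added to SGF (0.5M NaCl, pH 1.5), SIF (0.05M NaH2PO4, pH 4.5/6.8) or HEPES (10 mM, 150 mM NaCl, pH 7.4). Absorbance at 490, 535 and 650 nm; value is the concentration crossing OD 0.01, averaged over wavelengths. Low <31.3 μM, moderate 31.3–250 μM, high >250 μM.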

The term IC50 denotes the concentration needed to halve the response being measured.

Bounds are passed on as bounds.

`CCCS(=O)(=O)Nc1ccc(F)c(C(=O)c2c[nH]c3ncc(-c4ccc5[nH]ncc5c4)cc23)c1F` [P-0001, propane-1-sulfonic acid {2,4-difluoro-3-[5-(1H-indazol-5-yl)-1H-pyrrolo[2,3-b]pyridine-3-carbonyl]-phenyl}-amide]: the IC50 in series [1] is less than 1 µM.

`CNC(=O)n1ncc2cc(-c3cnc4[nH]cc(C(=O)c5c(F)ccc(NS(=O)(=O)c6cc(F)ccc6F)c5F)c4c3)ccc21` [P-0003, 5-{3-[3-(2,5-Difluoro-benzenesulfonylamino)-2,6-difluoro-benzoyl]-1H-pyrrolo[2,3-b]pyridin-5-yl}-indazole-1-carboxylic acid methylamide]: the IC50 in series [1] is less than 1 µM.

For the compound `CCCS(=O)(=O)Nc1ccc(F)c(C(=O)c2c[nH]c3ncc(-c4ccc5c(cnn5C(C)=O)c4)cc23)c1F` [P-0007, propane-1-sulfonic acid {3-[5-(1-acetyl-1H-indazol-5-yl)-1H-pyrrolo[2,3-b]pyridine-3-carbonyl]-2,4-difluoro-phenyl}-amide], the IC50 in series [1] was greater than 1 µM.

In the case of `CCCS(=O)(=O)Nc1ccc(F)c(C(=O)c2c[nH]c3ncc(-c4ccc5nn(C)cc5c4)cc23)c1F` [P-0010, Propane-1-sulfonic acid {2,4-difluoro-3-[5-(2-methyl-2H-indazol-5-yl)-1H-pyrrolo[2,3-b]pyridine-3-carbonyl]-phenyl}-amide], in series [2], the “turbidity threshold (L, M, H) 1.4” value is given as “L (low solubility if the threshold concentration is <31.3 μM)”; the “turbidity threshold (L, M, H) 4.5” value is “L (low solubility if the threshold concentration is <31.3 μM)”; the “turbidity threshold (L, M, H) 6.8” value is listed as “L (low solubility if the threshold concentration is <31.3 μM)”; the “turbidity threshold (L, M, H) 7.4” value is “L (low solubility if the threshold concentration is <31.3 μM)”. The IC50 in series [1] was less than 1 µM.

Regarding `CCCS(=O)(=O)Nc1ccc(F)c(C(=O)c2c[nH]c3ncc(-c4ccc5cn(C)nc5c4)cc23)c1F` [P-0011, Propane-1-sulfonic acid {2,4-difluoro-3-[5-(2-methyl-2H-indazol-6-yl)-1H-pyrrolo[2,3-b]pyridine-3-carbonyl]-phenyl}-amide], in series [2], the “turbidity threshold (L, M, H) 1.4” value is “L (low solubility if the threshold concentration is <31.3 μM)”; the “turbidity threshold (L, M, H) 4.5” value is reported as “L (low solubility if the threshold concentration is <31.3 μM)”; the “turbidity threshold (L, M, H) 6.8” value was “M (moderate solubility if the threshold concentration is 31.3 μM to 250 μM)”; the “turbidity threshold (L, M, H) 7.4” value was “L (low solubility if the threshold concentration is <31.3 μM)”. Besides, the IC50 in series [1] is less than 1 µM.

With `CCCS(=O)(=O)Nc1ccc(F)c(C(=O)c2c[nH]c3ncc(-c4ccc5[nH]ccc5c4)cc23)c1F` [P-0012, Propane-1-sulfonic acid {2,4-difluoro-3-[5-(1H-indol-5-yl)-1H-pyrrolo[2,3-b]pyridine-3-carbonyl]-phenyl}-amide], in series [2], the “turbidity threshold (L, M, H) 1.4” value is “L (low solubility if the threshold concentration is <31.3 μM)”; the “turbidity threshold (L, M, H) 4.5” value was “L (low solubility if the threshold concentration is <31.3 μM)”; the “turbidity threshold (L, M, H) 6.8” value is listed as “L (low solubility if the threshold concentration is <31.3 μM)”; the “turbidity threshold (L, M, H) 7.4” value is “L (low solubility if the threshold concentration is <31.3 μM)”. For the same compound, the IC50 in series [1] is less than 1 µM.

For the compound `CCCS(=O)(=O)Nc1ccc(F)c(C(=O)c2c[nH]c3ncc(-c4cccc5nn(C)cc45)cc23)c1F` [P-0015, Propane-1-sulfonic acid {2,4-difluoro-3-[5-(2-methyl-2H-indazol-4-yl)-1H-pyrrolo[2,3-b]pyridine-3-carbonyl]-phenyl}-amide], in series [2], the “turbidity threshold (L, M, H) 1.4” value is “L (low solubility if the threshold concentration is <31.3 μM)”; the “turbidity threshold (L, M, H) 4.5” value is given as “L (low solubility if the threshold concentration is <31.3 μM)”; the “turbidity threshold (L, M, H) 6.8” value is “L (low solubility if the threshold concentration is <31.3 μM)”; the “turbidity threshold (L, M, H) 7.4” value was “L (low solubility if the threshold concentration is <31.3 μM)”. Further, in series [1], the IC50 is less than 1 µM.

As to `CCCS(=O)(=O)Nc1ccc(F)c(C(=O)c2c[nH]c3ncc(-c4csc(-n5ccnc5C)n4)cc23)c1F` [P-1101, Propane-1-sulfonic acid (2,4-difluoro-3-{5-[2-(2-methyl-imidazol-1-yl)-thiazol-4-yl]-1H-pyrrolo[2,3-b]pyridine-3-carbonyl}-phenyl)-amide], in series [1], the half-inhibitory concentration (IC50) was less than 1 µM.

The record behind these values is US9440969B2, “Compounds and methods for kinase modulation, and indications therefor” (PLEXXIKON INC., priority 2009, dated 2016).
